Legend:
[1] = Chemical stability of the compound; type: physicochemical
[2] = Cytotoxicity against CD70 deficient human L540cy cells expressing CD30 after 96 hrs; type: functional, cell-based
[3] = tested on: CAKI-1; experiment: Cytotoxicity against CD30 deficient human Caki1 cells expressing CD70 after 96 hrs; type: functional, cell-based; details: CAKI-1, 96 h

Q: Which results are given for `C=C(C)CC(OC)[C@H](O)C(=O)N[C@@H](OC)[C@@H]1C[C@@H](O)C(C)(C)[C@@H](C[C@H](O)[C@@H](C)[C@H]2Cc3c(C)c(O)cc(O)c3C(=O)O2)O1` (stereo partly drawn) [IRCINIASTATIN A]?
A: Stability [1]: Stable; IC50 [2]: 0.7 nM; IC50 [3]: 0.3 nM
